Legend:
[1] = tested on: Pmm-2 F119L homozygous animals; test: Chemical stressor exposure of Pmm-2 mutant worms in liquid culture; assay type: in vivo, nematode (worms); settings: increasing concentrations
Source text: Because an underlying defect in glycosylation may be manifested when subjected to external chemical stressors, Pmm-2 F119L homozygous animals were subjected to Tunicamycin and Bortezomib drug exposures. Tunicamycin is an inhibitor of N-linked glycosylation and Bortezomib (Bzb) is an irreversible inhibitor of the proteasome. It was contemplated that either or both drugs would affect the Pmm-2 mutants differently compared to wild type (“WT”).

[2] = tested on: SEC53 variant (pmm2 mutant) yeast; test: Yeast growth rescue of SEC53 variant strains (validation of drug screen hits); assay type: cell-based; settings: for growth rescue/improvement: maximum dose/effect
Experimental: All strains used herein are in S288c background. Strains were grown in Synthetic Complete (“SC”) or SC drop out media (Sunrise)+2% dextrose at 30° C. unless otherwise noted. Standard genetic procedures of transformation and tetrad analysis were followed to construct strains. SEC53 rescue plasmid (pPL1) was generated by cloning the SEC53 promoter, open reading frame, and terminator sequences into the episomal pRS316 containing the URA3 selectable marker. SEC53 variants were generated by cloning the relevant promoter, GFP or SEC53 gene, and CYC1 terminator sequences into an integrating plasmid containing the LEU2 selectable marker and integrated at the SwaI restriction site into the HO locus. For PMM2 variants, the SEC53 ORF was replaced with a codon-optimized PMM2. Plasmids were generated by Next Interactions or GenScript. Strains were generated by Next Interactions or well-known techniques.
Cells from plates were resuspended in SC media to OD600=1.0, then serial diluted into 50 μL SC+FOA media in 384-well plates at 10^−1, 10^−2, and 10^−3. Plates were incubated at 30° C. and absorbance reading at […] were measured by a plate reader (Molecular Devices SpectraMax M3) at the indicated time points. Plates were vortexed briefly to resuspend cells prior to plate readings. 5-floroortic acid was purchased from US Biological and used at a concentration of 1 mg/L.
125 nL of compounds or DMSO were dispensed into 384-well plates using the Echo acoustic dispenser (LabCyte) to achieve a final concentration of 25 μM. 50 μL of 10^−2 dilution of an OD600=1.0 or 0.5 yeast cell suspensions were dispensed into the 384-well plates containing compounds or DMSO with a MultiFlo automated dispenser (Biotek). Plates were covered and incubated at 30° C. for 16-21 hours until OD600 reaches ˜0.8. Plates were vortexed briefly to resuspend cells prior to reading.
MicroSource Spectrum compounds were reordered from MicroSource Discovery Systems and resuspended in DMSO. 5-125 nL compounds or DMSO were dispensed into 384-well plates and 50 μL of yeast cell suspensions or media were dispensed by multichannel pipettes to achieve the desired concentration. Plates were covered and incubated at 30° C. for 16-23 hours until OD600 reaches ˜0.8. Plates were vortexed briefly to resuspend cells prior to plate readings.
pACT1-F126L, pSEC53-V238M, and pSEC53-F126L haploids and pACT1-F126L/pACT1-R148H, pSEC53-V238M/pSEC53-R148H, and pSEC53-F126L/pSEC53-R148H heterozygous diploids were advanced to a high-throughput drug screen. Screening was done in a 2,560 compound MicroSource Spectrum library collection consisting of FDA approved drugs, bioactive tool compounds, and natural products. Each strain was screened in duplicate and in 384-well plates, with each plate containing 32 wells of the negative control (no drugs) and 24 wells of the positive controls (wild type cells). […] Additionally, there is good correlation between replicates (correlation >0.4 for all panels). With a Z-score cutoff of 2.0, we initially identified six compounds that may be promising and their ability to rescue growth is conserved between the haploid and diploid strains.
These initial hits were further studied for validation. […] At the maximum dose tested, alpha-cyano-4-hydroxycinnamic acid (Compound 1) rescues the F126L allele by 17.7% in haploid and 24.5% in diploid cells.

PMM2 = PMM2 enzymatic assay on lysates of compound-treated fibroblasts; assay type: cell-based, human; settings: for effect on PMM2 enzymatic activity: human fibroblasts GM20942 (F119L/R148H as printed), 10 and 15 μM, 24 and 48 hours; for PMM2 enzyme activity: above described cell models
Experimental: Cells (WT and PMM2 (GM20942-R141H/F119L) compound heterozygous fibroblasts) were seeded at 45 cells/μL (48 hours) and 60 cells/μL (24 hours) in 96 well plates. Compounds were added while seeding cells. The cells were incubated with the tested compounds for 24 and 48 hours (2 different plates, at 10 and 15 μM). Cells were washed twice with phosphate buffer solution. Cell extracts were prepared by adding 10 μL homogenization buffer (20 mM Hepes, 25 mM KCl, 1 mM dithiothreitol, 10 μg/mL each leupeptin and antipain) into each well. The plate was frozen at −80° C. and thawed (this step was repeated two times). Contents of the well were then transferred to the next well, frozen, and thawed. The previous two steps were repeated again to obtain 3× protein. The plate was centrifuged at 4000 rpm for 10 min. 1 μL of sample was taken for Qubit protein quantification, and assay buffer was added into these wells. The plate was incubated at 37° C., and readings were taken every 30 mins.
PMM2 enzymatic activities were assayed spectrophotometrically at 340 nm by the reduction of NADP+ to NADPH in a reaction mixture incubated at 30° C. for 60 mins in a 96-well plate. Cell lysates were added to 200 μL volume in the following reaction: 50 mM HEPES, pH 7.1, 5 mM MgCl2, 0.5 mM NADP+, 10 μg/mL yeast glucose-6-phosphate dehydrogenase, 20 μM glucose 1,6-bisphosphate, 200 μM mannose 1-phosphate, 10 μg/mL phosphoglucose isomerase, and […]. Glucose 1,6-bisphosphate was used as an activator of PMM2 activity. NADPH formation was calculated from absorbance at 340 nm using the Beer's Law (absorbance=εLc).
A PMM2 enzymatic assay was performed to determine whether the expression level of the variants correlate with the enzymatic activity in the cell. To do this, phosphomannose mutase (PMM) activity was assayed by measuring the reduction of NADP+ to NADPH spectrophotometrically at 340 nm with a plate reader according to methods known in the art. This is achieved by a series of four reactions shown in Scheme 1.
Mannose-1-phosphate and NADP are provided as substrates for the reactions along with phosphomannose isomerase, phosphoglucose isomerase, glucose-6-phosphoate dehydrogenase, and PMM2 from the protein lysate. Additionally, glucose 1,6-bisphosphate is used as an activator of PMM2 activity.
To determine whether these compounds rescue growth by increasing PMM2 enzymatic activity, human fibroblast cells (GM20942) containing the F119L/R148H heterozygous mutations and wild type fibroblast cells were treated with each compound. The cell lysates were subjected to the PMM2 enzymatic reaction.

[3] = pACT1-F126L/R148H heterozygous diploid cells

Compound	growth of Pmm-2 mutants compared to wild type under drug exposure [1]	growth rescue/improvement ([2]; pACT1-F126L haploid cells) [%]	growth rescue/improvement [2, 3] [%]	effect on PMM2 enzymatic activity (PMM2)	PMM2 enzyme activity (PMM2)	further results
CC(C)C[C@H](NC(=O)[C@H](Cc1ccccc1)NC(=O)c1cnccn1)B(O)O [Bzb, Bortezomib]	delayed growth	–	–	–	–	–
N#C/C(=C\c1ccc(O)cc1)C(=O)O [Compound 1, α-cyano-4-hydroxycinnamic acid]	–	17.7	24.5	rescues the enzymatic activity	–	rescue of growth of SEC53 alleles ([2]; haploid and heterozygous diploid cells, dose response): consistent and dose-dependent rescues
CNc1ccccc1C(=O)N1CCc2c([nH]c3ccccc23)C1=O [rhetsinine, Rhetsinine]	–	–	–	–	increase PMM2 enzyme activity	–
Cc1ccc(C(=O)Nc2ccc(S(=O)(=O)O)c3cc(S(=O)(=O)O)cc(S(=O)(=O)O)c23)cc1NC(=O)c1cccc(NC(=O)Nc2cccc(C(=O)Nc3cc(C(=O)Nc4ccc(S(=O)(=O)O)c5cc(S(=O)(=O)O)cc(S(=O)(=O)O)c45)ccc3C)c2)c1 [suramin hexasodium]	–	6.7	22.6	no discernible effect	–	growth improvement ([2]; pSEC53-F126L haploid cells): 24.5%; growth improvement ([2]; pSEC53-F126L/R148H heterozygous diploid cells): 47.4%; growth improvement ([2]; pSEC53-V238M haploid cells): 16.1%; growth improvement ([2]; pSEC53-V238M/R148H heterozygous diploid cells): 38.9%
Epalrestat [reference compound]	–	–	–	–	increase PMM2 enzyme activity	rescue of yeast growth defect ([2]; above described cell models): rescued yeast growth defect
Tunicamycin	no major differences in growth	–	–	–	–	–
